Data reported in US7608619B2, “Substituted oxazole compounds with analgesic activity” (Gruenenthal GmbH, priority 2005, dated 2009).

Target: T1, human μ-opiate receptor (Homo sapiens, UniProt P35372)
T1 construct: purchased Nen company, Zaventem, Belgium RB-HOM; host or cells: CHO-K1 cells (membrane preparation)
Assay: Affinity for the human μ-opiate receptor ([3H]-naloxone displacement, SPA, CHO-K1 membrane preparation)
Settings: test substance 1 μmole/l, displacement of 1 nmole/l [3H]-naloxone, percentage inhibition of the specific binding; for inhibition at 1 µM: read-out: μ-opioid receptor, % inhibition [1 μM]
How it was run: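 [3H]-naloxone (1 nmol/l) displacement by SPA with WGA beads, using membranes of CHO-K1 cells expressing the receptor, in 50 mmol/l Tris-HCl with 0.05% azide and 0.06% BSA; 90 min at room temperature. Non-specific binding defined with 25 μmol/l naloxone. Value is % inhibition of specific binding at 1 μmol/l test compound.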

T1 sequence (P35372 whole entry): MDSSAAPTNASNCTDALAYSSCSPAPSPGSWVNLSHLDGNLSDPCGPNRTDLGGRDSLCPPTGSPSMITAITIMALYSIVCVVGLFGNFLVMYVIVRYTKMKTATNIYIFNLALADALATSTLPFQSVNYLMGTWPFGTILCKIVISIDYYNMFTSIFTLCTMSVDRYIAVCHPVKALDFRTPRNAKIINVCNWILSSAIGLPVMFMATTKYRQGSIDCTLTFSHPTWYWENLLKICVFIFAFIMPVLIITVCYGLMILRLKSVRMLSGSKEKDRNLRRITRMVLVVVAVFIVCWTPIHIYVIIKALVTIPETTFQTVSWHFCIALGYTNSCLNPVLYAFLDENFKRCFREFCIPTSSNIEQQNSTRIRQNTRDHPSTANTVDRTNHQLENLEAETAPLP

Compound | inhibition at 1 µM [%] | μ-opioid receptor, % inhibition [1 μM] [%]
CC1CC(C)CN(c2oc(C(CC3CCC(C(c4ccc(F)cc4)N(C)C)CC3)N(C)c3ccccc3)nc2Cc2ccccc2)C1 (stereo not drawn) [compound 101, (1-[4-benzyl-5-(3,5-dimethylpiperidin-1-yl)-oxazol-2-yl]-2-{4-[dimethylamino-(4-fluorophenyl)-methyl]-cyclohexyl}-ethyl)-methylphenylamine] | 68 | 
CN(CCc1ccccc1)c1oc(C(CC2CCC(C(c3ccc(F)cc3)N(C)C)CC2)N(C)c2ccccc2)nc1Cc1ccccc1 (stereo not drawn) [compound 102, {4-benzyl-2-[2-{4-[dimethylamino-(4-fluorophenyl)-methyl]-cyclohexyl}-1-(methylphenylamine)-ethyl]-oxazol-5-yl}-methylphenethylamine] |  | 77
CCN(CC)c1oc(C(CC2CCC(C(c3ccc(F)cc3)N(C)C)CC2)N(C)c2ccccc2)nc1Cc1ccccc1 (stereo not drawn) [compound 103, {4-benzyl-2-[2-{4-[dimethylamino-(4-fluorophenyl)-methyl]-cyclohexyl}-1-(methylphenylamine)-ethyl]-oxazol-5-yl}-diethylamine] |  | 79
CN(C)C(c1ccc(F)cc1)C1CCC(CC(c2nc(Cc3ccccc3)c(N3CCSCC3)o2)N(C)c2ccccc2)CC1 (stereo not drawn) [compound 104, (1-(4-benzyl-5-thiomorpholin-4-yl-oxazol-2-yl)-2-{4-[dimethylamino-(4-fluorophenyl)-methyl]-cyclohexyl}-ethyl)-methylphenylamine] | 89 | 
CC1CCCN(c2oc(C(CC3CCC(C(c4ccc(F)cc4)N(C)C)CC3)N(C)c3ccccc3)nc2Cc2ccccc2)C1 (stereo not drawn) [compound 105, (1-[4-benzyl-5-(3-methylpiperidin-1-yl)-oxazol-2-yl]-2-{4-[dimethylamino-(4-fluorophenyl)-methyl]-cyclohexyl}-ethyl)-methylphenylamine] | 71 | 
CC1CCCN(c2oc(C(CC3CCC(C(c4ccc(F)cc4)N(C)C)CC3)N3CCN(Cc4ccccc4)CC3)nc2Cc2ccccc2)C1 (stereo not drawn) [compound 106, [{4-[2-[4-benzyl-5-(3-methylpiperidin-1-yl)-oxazol-2-yl]-2-(4-benzyl-piperazin-1-yl)-ethyl]-cyclohexyl}-(4-fluorophenyl)-methyl]-dimethylamine] | 61 | 
CC1CC(C)CN(c2oc(C(CC3CCC(C(c4cccs4)N(C)C)CC3)N3CCCCC3)nc2Cc2ccccc2)C1 (stereo not drawn) [compound 107, [(4-{2-[4-benzyl-5-(3,5-dimethylpiperidin-1-yl)-oxazol-2-yl]-2-piperidin-1-yl-ethyl}-cyclohexyl)-thiophen-2-yl-methyl]-dimethylamine] | 84 | 
CN(CCc1ccccc1)c1oc(C(CC2CCC(C(c3cccs3)N(C)C)CC2)N2CCCCC2)nc1Cc1ccccc1 (stereo not drawn) [compound 108, (4-benzyl-2-{2-[4-(dimethylaminothiophen-2-yl-methyl)-cyclohexyl]-1-piperidin-1-yl-ethyl}-oxazol-5-yl)-methylphenethylamine] | 88 | 
CCN(CC)c1oc(C(CC2CCC(C(c3cccs3)N(C)C)CC2)N2CCCCC2)nc1Cc1ccccc1 (stereo not drawn) [compound 109, (4-benzyl-2-{2-[4-(dimethylaminothiophen-2-yl-methyl)-cyclohexyl]-1-piperidin-1-yl-ethyl}-oxazol-5-yl)-diethylamine] | 98 | 
CN(C)C(c1cccs1)C1CCC(CC(c2nc(Cc3ccccc3)c(N3CCSCC3)o2)N2CCCCC2)CC1 (stereo not drawn) [compound 110, ({4-[2-(4-benzyl-5-thiomorpholin-4-yl-oxazol-2-yl)-2-piperidin-1-yl-ethyl]-cyclohexyl}-thiophen-2-yl-methyl)-dimethylamine] | 97 | 
CC1CCCN(c2oc(C(CC3CCC(C(c4cccs4)N(C)C)CC3)N3CCCCC3)nc2Cc2ccccc2)C1 (stereo not drawn) [compound 111, [(4-{2-[4-benzyl-5-(3-methylpiperidin-1-yl)-oxazol-2-yl]-2-piperidin-1-yl-ethyl}-cyclohexyl)-thiophen-2-yl-methyl]-dimethylamine] | 92 | 
CCN(CC)C(CC1CCC(C(c2cccs2)N(C)C)CC1)c1nc(Cc2ccccc2)c(N2CC(C)CC(C)C2)o1 (stereo not drawn) [compound 112, {1-[4-benzyl-5-(3,5-dimethylpiperidin-1-yl)-oxazol-2-yl]-2-[4-(dimethylamino-thiophen-2-yl-methyl)-cyclohexyl]-ethyl}-diethylamine] | 89 | 
CCN(CC)C(CC1CCC(C(c2cccs2)N(C)C)CC1)c1nc(Cc2ccccc2)c(N(C)CCc2ccccc2)o1 (stereo not drawn) [compound 113, (4-benzyl-2-{1-diethylamino-2-[4-(dimethylaminothiophen-2-yl-methyl)-cyclohexyl]-ethyl}-oxazol-5-yl)-methylphenethylamine] | 97 | 
CCN(CC)c1oc(C(CC2CCC(C(c3cccs3)N(C)C)CC2)N(CC)CC)nc1Cc1ccccc1 (stereo not drawn) [compound 114, (4-benzyl-2-{1-diethylamino-2-[4-(dimethylaminothiophen-2-yl-methyl)-cyclohexyl]-ethyl}-oxazol-5-yl)-diethylamine] | 94 | 
CCN(CC)C(CC1CCC(C(c2cccs2)N(C)C)CC1)c1nc(Cc2ccccc2)c(N2CCSCC2)o1 (stereo not drawn) [compound 115, {1-(4-benzyl-5-thiomorpholin-4-yl-oxazol-2-yl)-2-[4-(dimethylamino-thiophen-2-yl-methyl)-cyclohexyl]-ethyl}-diethylamine] | 93 | 
CCN(CC)C(CC1CCC(C(c2cccs2)N(C)C)CC1)c1nc(Cc2ccccc2)c(N2CCCC(C)C2)o1 (stereo not drawn) [compound 116, {1-[4-benzyl-5-(3-methylpiperidin-1-yl)-oxazol-2-yl]-2-[4-(dimethylamino-thiophen-2-yl-methyl)-cyclohexyl]-ethyl}-diethylamine] | 94 | 
CC1CCCN(c2oc(C(CC3CCC(C(c4cccs4)N(C)C)CC3)N(C)c3ccccc3)nc2Cc2ccccc2)C1 (stereo not drawn) [compound 117, {1-[4-benzyl-5-(3-methylpiperidin-1-yl)-oxazol-2-yl]-2-[4-(dimethylamino-thiophen-2-yl-methyl)-cyclohexyl]-ethyl}-methylphenylamine] | 99 | 
CN(C)C(c1cccs1)C1CCC(CC(c2nc(Cc3ccccc3)c(N3CCSCC3)o2)N2CCN(Cc3ccccc3)CC2)CC1 (stereo not drawn) [compound 118, ({4-[2-(4-benzylpiperazin-1-yl)-2-(4-benzyl-5-thiomorpholin-4-yl-oxazol-2-yl)-ethyl]-cyclohexyl}-thiophen-2-yl-methyl)-dimethylamine] | 84 | 
CC1CCCN(c2oc(C(CC3CCC(C(c4cccs4)N(C)C)CC3)N3CCN(Cc4ccccc4)CC3)nc2Cc2ccccc2)C1 (stereo not drawn) [compound 119, ({4-[2-[4-benzyl-5-(3-methylpiperidin-1-yl)-oxazol-2-yl]-2-(4-benzyl-piperazin-1-yl)-ethyl]-cyclohexyl}-thiophen-2-yl-methyl)-dimethylamine] | 99 | 
CN(C)C(c1cccc(F)c1)C1CCC(C(c2nc(Cc3ccccc3)c(N3CCCC3)o2)N2CCOCC2)CC1 (stereo not drawn) [compound 120, [{4-[(4-benzyl-5-pyrrolidin-1-yl-oxazol-2-yl)-morpholin-4-yl-methyl]-cyclohexyl}-(3-fluorophenyl)-methyl]-dimethylamine] | 75 | 
CN(C)C(c1cccc(F)c1)C1CCC(C(c2nc(Cc3ccccc3)c(N3CCOCC3)o2)N2CCOCC2)CC1 (stereo not drawn) [compound 121, [{4-[(4-benzyl-5-morpholin-4-yl-oxazol-2-yl)-morpholin-4-yl-methyl]-cyclohexyl}-(3-fluorophenyl)-methyl]-dimethylamine] | 67 | 
